Source: article PMC11954736 (BioImpacts : BI, 2024)

Assays:
[1] = system: MCF7; assay: Cell viability assay; format: cell-based, human; settings: MTT, 48 h exposure; LD50: concentration that causes 50% of cell viability
[2] = system: B16; assay: Cell viability assay; format: cell-based, murine; settings: MTT, 48 h exposure; LD50: concentration that causes 50% of cell viability
[3] = system: PC12 cells; assay: Cell viability assay; format: cell-based, rat; settings: MTT, 48 h exposure, studied concentrations
[4] = system: NF-κB; assay: Western blot of NF-κB in rat hippocampal tissue; format: in vivo, Wistar rats; settings: Aβ induced AD rats, oral, 21 days
[5] = system: Aβ-induced memory impairment in Wistar rats; assay: Morris water maze; format: in vivo; settings: Aβ induced AD rats, oral, 21 days; 3rd and fourth training days
[6] = system: TNFα; assay: Western blot of TNFα in rat hippocampal tissue; format: in vivo, Wistar rats; settings: Aβ induced AD rats, oral, 21 days

Compound	MCF7 (LD50 µM) [1]	B16 (LD50 µM) [2]	PC12 (LD50 µM) [3]	PC12 (LD50 µM) ([3]; listed as galantamine)	NF-κB level in hippocamp tissue (western blot) [4]	Escape latency time, MWM [5]	TNFα level in hippocamp tissue (western blot) [6]
COc1ccc2c3c1O[C@H]1C[C@@H](O)C=C[C@@]31CCN(C)C2 [Galantamine]	31.19 µM	34.09 µM	No growth inhibition*	no significant effect	–	–	–
COc1cc2c(cc1OC)C(=O)C(CC1CCN(Cc3ccccc3)CC1)C2 (stereo not shown) [Donepezil]	–	–	–	–	Downregulation	significantly decreased	Downregulation
